Experimental data as given in patent publication US20250305055A1, “PROGNOSTIC/PREDICTIVE BREAST CANCER SIGNATURE” (priority 2021, published 2025).

Tested on: breast cancer cell lines BT20, MDA-MB-231 and SUM-i 159
Assay: Drug response: breast cancer cell line proliferation inhibition
Type: cell-based
Conditions: same dose as in the triple-drug combinations, BT20, MDA-MB-231, SUM-i 159, FIG. 9
Procedure: The breast cancer cell lines BT20, MDA-MB-231 and SUM-i 159 were treated with HDAC inhibitor (MS275), ISP inhibitor (17-AAG), mTOR inhibitor (Niclosamide), polo-like kinase inhibitor (1312536) and histone demethylase inhibitor (GSK-J4).

| SMILES | inhibition of breast cancer cell line proliferation, single treatment |
| --- | --- |
| CCOC(=O)CCNc1cc(N2CCc3ccccc3CC2)nc(-c2ccccn2)n1 [GSK-J4] | ineffective |
| Nc1ccccc1NC(=O)c1ccc(CNC(=O)OCc2cccnc2)cc1 [MS275, Entinostat] | ineffective |
| O=C(Nc1ccc([N+](=O)[O-])cc1Cl)c1cc(Cl)ccc1O [Niclosamide] | ineffective |
| CC[C@@H]1C(=O)N(C)c2cnc(Nc3ccc(C(=O)NC4CCN(C)CC4)cc3OC)nc2N1C1CCCC1 [compound 1312536] | ineffective |
